Test: accelerated degradation studies (chemical stability, purity by HPLC)
Format: physicochemical
From the text: Crystalline particles of Form S of the compound of formula (I) were obtained using the methods described in Example 5 above. Crystalline particles of Form A were also obtained, using the ethyl acetate-heptane crystallization system described in WO2010/071583. Samples of Form A and Form S were subject to accelerated degradation studies. Samples of each crystalline form were stored at varying combinations of temperature and relative humidity and analysed for purity by HPLC at 0, 14 and 28 days.

[1] = 60 °C, 30% relative humidity, Day 0
[2] = 60 °C, 30% relative humidity, Day 14
[3] = 60 °C, 30% relative humidity, Day 28
[4] = 60 °C, 75% relative humidity, Day 0
[5] = 60 °C, 75% relative humidity, Day 14
[6] = 60 °C, 75% relative humidity, Day 28
[7] = 70 °C, 11% relative humidity, Day 0
[8] = 70 °C, 11% relative humidity, Day 14
[9] = 70 °C, 11% relative humidity, Day 28
[10] = 70 °C, 75% relative humidity, Day 0
[11] = 70 °C, 75% relative humidity, Day 14
[12] = 70 °C, 75% relative humidity, Day 28
[13] = 80 °C, 30% relative humidity, Day 0
[14] = 80 °C, 30% relative humidity, Day 14
[15] = 80 °C, 30% relative humidity, Day 28

SMILES	Purity by HPLC [1] [%]	Purity by HPLC [2] [%]	Purity by HPLC [3] [%]	Purity by HPLC [4] [%]	Purity by HPLC [5] [%]	Purity by HPLC [6] [%]	Purity by HPLC [7] [%]	Purity by HPLC [8] [%]	Purity by HPLC [9] [%]	Purity by HPLC [10] [%]	Purity by HPLC [11] [%]	Purity by HPLC [12] [%]	Purity by HPLC [13] [%]	Purity by HPLC [14] [%]	Purity by HPLC [15] [%]	degradation in accelerated degradation studies (under all the conditions that the samples were exposed to, Form S compared with Form A)
CNCCOc1ccccc1C1(Nc2nccn(-c3cc(C(=O)NC4CC4)cc(F)c3C)c2=O)CC1 [Form A, N-cyclopropyl-3-fluoro-4-methyl-5-[3-[[1-[2-[2-(methylamino)ethoxy]phenyl]cyclopropyl]amino]-2-oxo-pyrazin-1-yl]benzamide, reference compound]	99.43	99.41	99.39	99.43	99.20	99.21	99.43	99.33	99.33	99.43	98.78	98.76	99.43	99.40	99.36	–
CNCCOc1ccccc1C1(Nc2nccn(-c3cc(C(=O)NC4CC4)cc(F)c3C)c2=O)CC1 [Form S, N-cyclopropyl-3-fluoro-4-methyl-5-[3-[[1-[2-[2-(methylamino)ethoxy]phenyl]cyclopropyl]amino]-2-oxo-pyrazin-1-yl]benzamide]	99.77	99.77	99.77	99.77	99.64	99.63	99.77	99.77	99.77	99.77	99.77	99.77	99.77	99.77	99.78	significantly less degradation than Form A
